According to US6737383B1, “Herbicidal oxadiazolidines” (priority 1999, dated 2004):

Legend:
[1] = system: sugar beet; experiment: Test B pre/postemergence sugar beet; format: in vivo, Beta vulgaris
Procedure, shortened: (§1)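 Herbicidal effect was estimated by eye on a ten-point control scale after plants spent twelve to sixteen days in a greenhouse following soil or foliar treatment. Foliar sprays targeted plants at one to four leaves; all doses were formulated in a non-phytotoxic solvent with surfactant.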

[2] = system: wheat; experiment: Test B pre/postemergence wheat; format: in vivo, Triticum aestivum
Procedure, shortened: as §1

[3] = system: rape; experiment: Test B pre/postemergence rape; format: in vivo, Brassica napus
Procedure, shortened: as §1

[4] = system: soybean; experiment: Test B pre/postemergence soybean; format: in vivo, Glycine max
Procedure, shortened: as §1

[5] = system: crabgrass; experiment: Test B pre/postemergence crabgrass; format: in vivo, Digitaria sanguinalis
Procedure, shortened: as §1

[6] = system: wild oat; experiment: Test B pre/postemergence wild oat; format: in vivo, Avena fatua
Procedure, shortened: as §1

[7] = system: surinam grass; experiment: Test B pre/postemergence surinam grass; format: in vivo, Brachiaria decumbens
Procedure, shortened: as §1

[8] = system: cocklebur; experiment: Test B pre/postemergence cocklebur; format: in vivo, Xanthium strumarium
Procedure, shortened: as §1

[9] = system: blackgrass; experiment: Test B pre/postemergence blackgrass; format: in vivo, Alopecurus myosuroides
Procedure, shortened: as §1

[10] = system: purple nutsedge; experiment: Test B pre/postemergence purple nutsedge; format: in vivo, Cyperus rotundus
Procedure, shortened: as §1

[11] = system: bedstraw; experiment: Test B pre/postemergence bedstraw; format: in vivo, Galium aparine; conditions: Preemergence
Procedure, shortened: as §1

[12] = system: velvetleaf; experiment: Test B pre/postemergence velvetleaf; format: in vivo, Abutilon theophrasti
Procedure, shortened: as §1

[13] = system: corn; experiment: Test B pre/postemergence corn; format: in vivo, Zea mays
Procedure, shortened: as §1

[14] = system: pigweed; experiment: Test B pre/postemergence pigweed; format: in vivo, Amaranthus retroflexus
Procedure, shortened: as §1

[15] = system: morningglory; experiment: Test B pre/postemergence morningglory; format: in vivo, Ipomoea hederacea
Procedure, shortened: as §1

[16] = system: giant foxtail; experiment: Test B pre/postemergence giant foxtail; format: in vivo, Setaria faberii
Procedure, shortened: as §1

[17] = Postemergence, Rate 125 g/ha, scale of 0 to 10 where 0 is no effect and 10 is complete control
[18] = Preemergence, Rate 125 g/ha, scale of 0 to 10 where 0 is no effect and 10 is complete control
[19] = Preemergence, Rate 250 g/ha, scale 0 (no effect) to 10 (complete control)
[20] = Rate 250 g/ha, Postemergence, scale 0 to 10, 0 is no effect, 10 is complete control
[21] = Rate 500 g/ha, Postemergence, scale 0 to 10, 0 is no effect, 10 is complete control
[22] = Rate 500 g/ha, Preemergence, scale 0 to 10 (0 no effect, 10 complete control)
[23] = Rate 1000 g/ha, Preemergence, scale 0 to 10 (0 no effect, 10 complete control)
[24] = Postemergence, Rate 1000 g/ha, scale 0 to 10 (0 no effect, 10 complete control)

Compound: CCOP(=O)(Cn1c(=O)on(C(=O)N(c2ccc(F)cc2F)C(C)C)c1=O)OCC [Compound 736]
- Sugarbeets plant response rating [1, 17]: 0
- Plant response rating, Sugarbeets [1, 18]: 0
- Sugarbeets plant response rating [1, 19]: 0
- Sugarbeets plant response rating [1, 20]: 0
- Sugarbeets plant response rating [1, 21]: 0
- Sugarbeets plant response rating [1, 22]: 3
- Plant response rating, Sugarbeets [1, 23]: 5
- Wheat plant response rating [2, 17]: 2
- Plant response rating, Wheat [2, 18]: 3
- Wheat plant response rating [2, 19]: 3
- Wheat plant response rating [2, 20]: 2
- Wheat plant response rating [2, 21]: 2
- Wheat plant response rating [2, 22]: 8
- Plant response rating, Wheat [2, 23]: 9
- Rape plant response rating [3, 17]: 0
- Rape plant response rating [3, 24]: 0
- Plant response rating, Rape [3, 18]: 0
- Rape plant response rating [3, 19]: 0
- Rape plant response rating [3, 20]: 0
- Rape plant response rating [3, 21]: 0
- Rape plant response rating [3, 22]: 2
- Plant response rating, Rape [3, 23]: 2
- Soybean plant response rating [4, 17]: 3
- Plant response rating, Soybean [4, 18]: 0
- Soybean plant response rating [4, 19]: 2
- Soybean plant response rating [4, 20]: 4
- Soybean plant response rating [4, 21]: 3
- Soybean plant response rating [4, 22]: 2
- Plant response rating, Soybean [4, 23]: 3
- Crabgrass plant response rating [5, 17]: 3
- Crabgrass plant response rating [5, 24]: 6
- Plant response rating, Crabgrass [5, 18]: 3
- Crabgrass plant response rating [5, 19]: 4
- Crabgrass plant response rating [5, 20]: 3
- Crabgrass plant response rating [5, 21]: 4
- Crabgrass plant response rating [5, 22]: 9
- Plant response rating, Crabgrass [5, 23]: 9
- Wild oats plant response rating [6, 17]: 2
- Plant response rating, Wild oats [6, 18]: 2
- Wild oats plant response rating [6, 19]: 9
- Wild oats plant response rating [6, 20]: 3
- Wild oats plant response rating [6, 21]: 3
- Wild oats plant response rating [6, 22]: 9
- Plant response rating, Wild oats [6, 23]: 10
- B. signalgrass plant response rating [7, 17]: 0
- B. signalgrass plant response rating [7, 24]: 7
- Plant response rating, B. signalgrass [7, 18]: 3
- B. signalgrass plant response rating [7, 19]: 3
- B. signalgrass plant response rating [7, 20]: 0
- B. signalgrass plant response rating [7, 21]: 0
- B. signalgrass plant response rating [7, 22]: 8
- Plant response rating, B. signalgrass [7, 23]: 9
- Cocklebur plant response rating [8, 17]: 0
- Cocklebur plant response rating [8, 24]: 10
- Plant response rating, Cocklebur [8, 18]: 0
- Cocklebur plant response rating [8, 19]: 2
- Cocklebur plant response rating [8, 20]: 0
- Cocklebur plant response rating [8, 21]: 3
- Cocklebur plant response rating [8, 22]: 2
- Plant response rating, Cocklebur [8, 23]: 2
- Blackgrass plant response rating [9, 17]: 0
- Blackgrass plant response rating [9, 24]: 7
- Plant response rating, Blackgrass [9, 18]: 2
- Blackgrass plant response rating [9, 19]: 4
- Blackgrass plant response rating [9, 20]: 2
- Blackgrass plant response rating [9, 21]: 3
- Blackgrass plant response rating [9, 22]: 9
- Plant response rating, Blackgrass [9, 23]: 10
- Nutsedge plant response rating [10, 17]: 0
- Nutsedge plant response rating [10, 24]: 5
- Plant response rating, Nutsedge [10, 18]: 0
- Nutsedge plant response rating [10, 19]: 0
- Nutsedge plant response rating [10, 20]: 0
- Nutsedge plant response rating [10, 21]: 2
- Nutsedge plant response rating [10, 22]: 10
- Plant response rating, Nutsedge [10, 23]: 8
- Plant response rating, Bedstraw ([11]; Rate 125 g/ha, scale of 0 to 10 where 0 is no effect and 10 is complete control): 0
- Bedstraw plant response rating ([11]; Rate 250 g/ha, scale 0 (no effect) to 10 (complete control)): 0
- Bedstraw plant response rating ([11]; Rate 500 g/ha, scale 0 to 10 (0 no effect, 10 complete control)): 8
- Velvetleaf plant response rating [12, 17]: 2
- Plant response rating, Velvetleaf [12, 18]: 0
- Velvetleaf plant response rating [12, 19]: 0
- Velvetleaf plant response rating [12, 20]: 2
- Velvetleaf plant response rating [12, 21]: 3
- Velvetleaf plant response rating [12, 22]: 4
- Plant response rating, Velvetleaf [12, 23]: 3
- Corn plant response rating [13, 17]: 4
- Corn plant response rating [13, 24]: 4
- Plant response rating, Corn [13, 18]: 2
- Corn plant response rating [13, 19]: 2
- Corn plant response rating [13, 20]: 3
- Corn plant response rating [13, 21]: 4
- Corn plant response rating [13, 22]: 2
- Plant response rating, Corn [13, 23]: 9
- Redroot pigweed plant response rating [14, 17]: 2
- Redroot pigweed plant response rating [14, 24]: 3
- Plant response rating, Redroot pigweed [14, 18]: 0
- Redroot pigweed plant response rating [14, 19]: 2
- Redroot pigweed plant response rating [14, 21]: 0
- Redroot pigweed plant response rating [14, 22]: 2
- Plant response rating, Redroot pigweed [14, 23]: 2
- Morningglory plant response rating [15, 17]: 6
- Morningglory plant response rating [15, 24]: 7
- Plant response rating, Morningglory [15, 18]: 0
- Morningglory plant response rating [15, 19]: 2
- Morningglory plant response rating [15, 20]: 6
- Morningglory plant response rating [15, 21]: 5
- Morningglory plant response rating [15, 22]: 6
- Plant response rating, Morningglory [15, 23]: 6
- Giant foxtail plant response rating [16, 17]: 2
- Giant foxtail plant response rating [16, 24]: 6
- Plant response rating, Giant foxtail [16, 18]: 8
- Giant foxtail plant response rating [16, 19]: 9
- Giant foxtail plant response rating [16, 20]: 2
- Giant foxtail plant response rating [16, 21]: 7
- Giant foxtail plant response rating [16, 22]: 9
- Plant response rating, Giant foxtail [16, 23]: 8
